Measured values reported in patent US9505753B2, “Inhibitors of D-amino acid oxidase” (THE JOHNS HOPKINS UNIVERSITY, priority 2012, dated 2016).

What follows are molecules tested against human recombinant D-amino acid oxidase (Homo sapiens (Human), UniProt P14920) (assay: In vitro D-amino acid oxidase (DAAO) assay, 96-well plate). Conditions: human recombinant DAAO; D-serine 5 mM, FAD 1 μM, 20 min, room temperature, Tris buffer pH 8.5; read-out: Inhibition of DAAO IC50.
Format: biochemical
Method: A reliable 96-well plate D-amino acid oxidase (DAAO) assay was developed based on previously published reports (J. Biol. Chem. 277: 27782 (2002)). […] All reactions were carried out for 20 min at room temperature in a 100-μL volume in Tris buffer (50 mM, pH 8.5). Additionally, stock solutions and serial dilutions of potential DAO inhibitors were made in 10:90 DMSO:buffer with a final assay DMSO concentration of 1%.

Sequence of human recombinant D-amino acid oxidase (P14920 whole entry): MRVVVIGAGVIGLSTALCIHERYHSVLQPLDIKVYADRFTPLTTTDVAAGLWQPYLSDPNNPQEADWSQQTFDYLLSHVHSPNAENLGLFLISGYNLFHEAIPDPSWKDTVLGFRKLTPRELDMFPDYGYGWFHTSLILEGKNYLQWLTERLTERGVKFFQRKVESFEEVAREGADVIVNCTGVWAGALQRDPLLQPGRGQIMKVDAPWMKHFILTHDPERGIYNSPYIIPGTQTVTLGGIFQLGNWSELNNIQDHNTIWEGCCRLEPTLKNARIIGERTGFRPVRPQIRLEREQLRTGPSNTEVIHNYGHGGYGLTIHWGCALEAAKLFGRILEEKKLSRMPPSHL

Q: For `O=c1[nH]c(=O)n(CCc2ccccc2)nc1O` [Compound 5a, 6-Hydroxy-2-phenethyl-1,2,4-triazine-3,5(2H,4H)-dione], which IC50 is on record?
A: Its IC50 is 80 nM.

Q: Which IC50 does the source give for `O=c1[nH]c(=O)n(Cc2ccc3ccccc3c2)nc1O` [Compound 5aa, 6-Hydroxy-2-(naphthalen-2-ylmethyl)-1,2,4-triazine-3,5(2H,4H)-dione] here?
A: Its IC50 is 30 nM.

Q: `O=c1[nH]c(=O)n(Cc2ccc3cc(F)ccc3c2)nc1O` [Compound 5ab, 2-((6-Fluoronaphthalen-2-yl)methyl)-6-hydroxy-1,2,4-triazine-3,5(2H,4H)-dione] was tested. Which IC50 did it give?
A: The IC50 was 100 nM.

Q: How did the IC50 turn out when `O=c1[nH]c(=O)n(CCc2cccc(Oc3ccccc3)c2)nc1O` [Compound 5ad, 6-Hydroxy-2-(3-phenoxyphenethyl)-1,2,4-triazine-3,5(2H,4H)-dione] was run?
A: The IC50 was 300 nM.

Q: How did the IC50 turn out when `O=c1[nH]c(=O)n(Cc2ccc(Oc3ccccc3F)cc2)nc1O` [Compound 5ae, 2-(4-(2-Fluorophenoxyl)benzyl)-6-hydroxy-1,2,4-triazine-3,5(2H,4H)-dione] was run?
A: Its IC50 is 300 nM.

Q: `O=c1[nH]c(=O)n(Cc2ccc(-c3ccccc3)cc2)nc1O` [Compound 5af, 2-(Biphenyl-4-ylmethyl)-6-hydroxy-1,2,4-triazine-3,5(2H,4H)-dione] was tested. Which IC50 did it give?
A: The IC50 was 300 nM.

Q: How did the IC50 turn out when `O=c1[nH]c(=O)n(CCc2ccc(F)cc2)nc1O` [Compound 5b, 2-(4-Fluorophenethyl)-6-hydroxy-1,2,4-triazine-3,5(2H,4H)-dione] was run?
A: Its IC50 is 60 nM.

Q: How did the IC50 turn out when `O=c1[nH]c(=O)n(CCc2cccc(F)c2)nc1O` [Compound 5c, 2-(3-Fluorophenethyl)-6-hydroxy-1,2,4-triazine-3,5(2H,4H)-dione] was run?
A: The IC50 was 60 nM.

Q: `O=c1[nH]c(=O)n(CCc2ccccc2F)nc1O` [Compound 5d, 2-(2-Fluorophenethyl)-6-hydroxy-1,2,4-triazine-3,5(2H,4H)-dione] was tested. Which IC50 did it give?
A: The IC50 was 80 nM.

Q: For `O=c1[nH]c(=O)n(CCc2ccc(Cl)cc2)nc1O` [Compound 5e, 2-(4-Chlorophenethyl)-6-hydroxy-1,2,4-triazine-3,5(2H,4H)-dione], which IC50 is on record?
A: The IC50 was 30 nM.

Q: With `O=c1[nH]c(=O)n(CCc2cccc(Cl)c2)nc1O` [Compound 5f, 2-(3-Chlorophenethyl)-6-hydroxy-1,2,4-triazine-3,5(2H,4H)-dione] as the molecule, how does the IC50 read?
A: The IC50 was 60 nM.

Q: How did the IC50 turn out when `O=c1[nH]c(=O)n(CCc2ccccc2Cl)nc1O` [Compound 5g, 2-(2-Chlorophenethyl)-6-hydroxy-1,2,4-triazine-3,5(2H,4H)-dione] was run?
A: The IC50 was 100 nM.

Q: Which IC50 does the source give for `Cc1ccc(CCn2nc(O)c(=O)[nH]c2=O)cc1` [Compound 5h, 6-Hydroxy-2-(4-methylphenethyl)-1,2,4-triazine-3,5(2H,4H)-dione] here?
A: The IC50 was 100 nM.

Q: Which IC50 does the source give for `Cc1cccc(CCn2nc(O)c(=O)[nH]c2=O)c1` [Compound 5i, 6-Hydroxy-2-(3-methylphenethyl)-1,2,4-triazine-3,5(2H,4H)-dione] here?
A: The IC50 was 60 nM.

Q: For `Cc1ccccc1CCn1nc(O)c(=O)[nH]c1=O` [Compound 5j, 6-Hydroxy-2-(2-methylphenethyl)-1,2,4-triazine-3,5(2H,4H)-dione], which IC50 is on record?
A: The IC50 was 60 nM.

Q: Which IC50 does the source give for `O=c1[nH]c(=O)n(CCc2ccc(C(F)(F)F)cc2)nc1O` [Compound 5k, 6-Hydroxy-2-(4-(trifluoromethyl)phenethyl)-1,2,4-triazine-3,5(2H,4H)-dione] here?
A: The IC50 was 80 nM.

Q: How did the IC50 turn out when `O=c1[nH]c(=O)n(CCc2cccc(C(F)(F)F)c2)nc1O` [Compound 5l, 6-Hydroxy-2-(3-(trifluoromethyl)phenethyl)-1,2,4-triazine-3,5(2H,4H)-dione] was run?
A: Its IC50 is 90 nM.

Q: With `O=c1[nH]c(=O)n(CCc2ccc(Cl)cc2Cl)nc1O` [Compound 5m, 2-(2,4-Dichlorophenethyl)-6-hydroxy-1,2,4-triazine-3,5(2H,4H)-dione] as the molecule, how does the IC50 read?
A: Its IC50 is 80 nM.

Q: Which IC50 does the source give for `O=c1[nH]c(=O)n(CCc2cccc3ccccc23)nc1O` [Compound 5n, 6-Hydroxy-2-(2-(naphthalen-1-yl)ethyl)-1,2,4-triazine-3,5(2H,4H)-dione] here?
A: Its IC50 is 100 nM.

Q: With `O=c1[nH]c(=O)n(CCc2ccc(-c3ccccc3)cc2)nc1O` [Compound 5o, 2-(2-(Biphenyl-4-yl)ethyl)-6-hydroxy-1,2,4-triazine-3,5(2H,4H)-dione] as the molecule, how does the IC50 read?
A: Its IC50 is 30 nM.

Q: Which IC50 does the source give for `Cn1nc(O)c(=O)[nH]c1=O` [Compound 5p, 6-Hydroxy-2-methyl-1,2,4-triazine-3,5(2H,4H)-dione] here?
A: The IC50 was 3000 nM.

Q: For `CC(C)CCn1nc(O)c(=O)[nH]c1=O` [Compound 5q, 6-Hydroxy-2-isopentyl-1,2,4-triazine-3,5(2H,4H)-dione], which IC50 is on record?
A: Its IC50 is 300 nM.

Q: `CC(C)(C)CCn1nc(O)c(=O)[nH]c1=O` [Compound 5r, 2-(3,3-Dimethylbutyl)-6-hydroxy-1,2,4-triazine-3,5(2H,4H)-dione] was tested. Which IC50 did it give?
A: Its IC50 is 40000 nM.

Q: How did the IC50 turn out when `O=c1[nH]c(=O)n(CCCc2ccccc2)nc1O` [Compound 5s, 6-Hydroxy-2-(3-phenylpropyl)-1,2,4-triazine-3,5(2H,4H)-dione] was run?
A: The IC50 was 2000 nM.

Q: `O=c1[nH]c(=O)n(Cc2ccccc2)nc1O` [Compound 5t, 2-Benzyl-6-hydroxy-1,2,4-triazine-3,5(2H,4H)-dione] was tested. Which IC50 did it give?
A: Its IC50 is 9000 nM.

Q: For `O=c1[nH]c(=O)n(Cc2cccc3ccccc23)nc1O` [Compound 5u, 6-Hydroxy-2-(naphthalen-1-ylmethyl)-1,2,4-triazine-3,5(2H,4H)-dione], which IC50 is on record?
A: Its IC50 is 50 nM.

Q: `COc1ccccc1CCn1nc(O)c(=O)[nH]c1=O` [Compound 5v, 6-Hydroxy-2-(2-methoxyphenethyl)-1,2,4-triazine-3,5(2H,4H)-dione] was tested. Which IC50 did it give?
A: Its IC50 is 200 nM.

Q: Which IC50 does the source give for `O=c1[nH]c(=O)n(CCc2ccccc2O)nc1O` [Compound 5vp, 6-Hydroxy-2-(2-hydroxyphenethyl)-1,2,4-triazine-3,5(2H,4H)-dione] here?
A: The IC50 was 60 nM.

Q: For `COc1cccc(CCn2nc(O)c(=O)[nH]c2=O)c1` [Compound 5w, 6-Hydroxy-2-(3-methoxyphenethyl)-1,2,4-triazine-3,5(2H,4H)-dione], which IC50 is on record?
A: The IC50 was 100 nM.

Q: With `O=c1[nH]c(=O)n(CCc2cccc(O)c2)nc1O` [Compound 5wp, 6-Hydroxy-2-(3-hydroxyphenethyl)-1,2,4-triazine-3,5(2H,4H)-dione] as the molecule, how does the IC50 read?
A: The IC50 was 100 nM.

Q: `O=c1[nH]c(=O)n(CCc2ccc(O)cc2)nc1O` [Compound 5xp, 6-Hydroxy-2-(4-hydroxyphenethyl)-1,2,4-triazine-3,5(2H,4H)-dione] was tested. Which IC50 did it give?
A: Its IC50 is 100 nM.

Q: Which IC50 does the source give for `O=c1[nH]c(=O)n(CCc2ccc(Cl)c(Cl)c2)nc1O` [Compound 5y, 2-(3,4-Dichlorophenethyl)-6-hydroxy-1,2,4-triazine-3,5(2H,4H)-dione] here?
A: Its IC50 is 30 nM.

Q: `O=c1[nH]c(=O)n(CCc2ccc(F)c(Cl)c2)nc1O` [Compound 5z, 2-(3-Chloro-4-fluorophenethyl)-6-hydroxy-1,2,4-triazine-3,5(2H,4H)-dione] was tested. Which IC50 did it give?
A: The IC50 was 60 nM.

Q: For `O=c1[nH]c(=O)n(CC(F)(F)c2ccccc2)nc1O` [Compound 10a, 2-(2,2-Difluoro-2-phenylethyl)-6-hydroxy-1,2,4-triazine-3,5(2H,4H)-dione], which IC50 is on record?
A: The IC50 was 400 nM.

Q: With `O=c1[nH]c(=O)n(CCc2ccc(F)c(F)c2)nc1O` [Compound 10b, 2-(3,4-Difluorophenethyl)-6-hydroxy-1,2,4-triazine-3,5(2H,4H)-dione] as the molecule, how does the IC50 read?
A: Its IC50 is 40 nM.

Q: With `O=c1[nH]c(=O)n(CCn2cccc2)nc1O` [Compound 10c, 2-(2-(1H-pyrrol-1-yl)ethyl)-6-hydroxy-1,2,4-triazine-3,5(2H,4H)-dione] as the molecule, how does the IC50 read?
A: The IC50 was 100 nM.

Q: With `O=c1[nH]c(=O)n(CCn2cccn2)nc1O` [Compound 10d, 2-(2-(1H-pyrazol-1-yl)ethyl)-6-hydroxy-1,2,4-triazine-3,5(2H,4H)-dione] as the molecule, how does the IC50 read?
A: Its IC50 is 300 nM.

Q: Which IC50 does the source give for `O=c1[nH]c(=O)n(CCn2ccc3ccccc32)nc1O` [Compound 10e, 2-(2-(1H-indol-1-yl)ethyl)-6-hydroxy-1,2,4-triazine-3,5(2H,4H)-dione] here?
A: Its IC50 is 100 nM.

Q: With `O=c1[nH]c(=O)n(CCn2cnc3ccccc32)nc1O` [Compound 10f, 2-(2-(1H-benzo[d]imidazol-1-yl)ethyl)-6-hydroxy-1,2,4-triazine-3,5(2H,4H)-dione] as the molecule, how does the IC50 read?
A: The IC50 was 300 nM.

Q: How did the IC50 turn out when `O=c1[nH]c(=O)n(CCn2ccc3cccnc32)nc1O` [Compound 10g, 2-(2-(1H-pyrrolo[2,3-b]pyridin-1-yl)ethyl)-6-hydroxy-1,2,4-triazine-3,5(2H,4H)-dione] was run?
A: The IC50 was 300 nM.

Q: Which IC50 does the source give for `O=c1[nH]c(=O)n(CCn2ncc3ccccc32)nc1O` [Compound 10h, 2-(2-(1H-indazol-1-yl)ethyl)-6-hydroxy-1,2,4-triazine-3,5(2H,4H)-dione] here?
A: The IC50 was 200 nM.

Q: With `O=c1[nH]c(=O)n(CCn2c3ccccc3c3ccccc32)nc1O` [Compound 10i, 2-(2-(9H-carbazol-9-yl)ethyl)-6-hydroxy-1,2,4-triazine-3,5(2H,4H)-dione] as the molecule, how does the IC50 read?
A: Its IC50 is 7000 nM.

Q: For `O=c1[nH]c(=O)n(CCN2CCOCC2)nc1O` [Compound 10j, 6-Hydroxy-2-(2-morpholinoethyl)-1,2,4-triazine-3,5(2H,4H)-dione], which IC50 is on record?
A: Its IC50 is 1000 nM.

Q: How did the IC50 turn out when `CC(Cc1ccccc1)n1nc(O)c(=O)[nH]c1=O` (stereo not shown) [Compound 10k, 6-Hydroxy-2-(1-phenylpropan-2-yl)-1,2,4-triazine-3,5(2H,4H)-dione] was run?
A: The IC50 was 300 nM.

Q: `O=c1[nH]c(=O)n(CCc2ccccn2)nc1O` [Compound 10l, 6-Hydroxy-2-(2-(pyridin-2-yl)ethyl)-1,2,4-triazine-3,5(2H,4H)-dione] was tested. Which IC50 did it give?
A: Its IC50 is 900 nM.

Q: `O=c1[nH]c(=O)n(C[C@@H]2C[C@H]2c2ccccc2)nc1O` [Compound 10n, 6-Hydroxy-2-(((1R,2R)-2-phenylcyclopropyl)methyl)-1,2,4-triazine-3,5(2H,4H)-dione] was tested. Which IC50 did it give?
A: The IC50 was 400 nM.

Q: `O=c1[nH]c(=O)n(Cc2cccc3[nH]ccc23)nc1O` [Compound 10o, 2-((1H-indol-4-yl)methyl)-6-hydroxy-1,2,4-triazine-3,5(2H,4H)-dione] was tested. Which IC50 did it give?
A: Its IC50 is 200 nM.

Q: How did the IC50 turn out when `O=c1[nH]c(=O)n(Cc2cccc3cnccc23)nc1O` [Compound 10p, 6-Hydroxy-2-(isoquinolin-5-ylmethyl)-1,2,4-triazine-3,5(2H,4H)-dione] was run?
A: The IC50 was 300 nM.

Same assay, conditions: read-out: Inhibition of DAAO IC50

Q: How did the IC50 turn out when `COc1ccc(CCn2nc(O)c(=O)[nH]c2=O)cc1` [Compound 5x, 6-Hydroxy-2-(4-methoxyphenethyl)-1,2,4-triazine-3,5(2H,4H)-dione] was run?
A: Its IC50 is 100 nM.
